Square brackets hold non-standard residues; d marks the D form. Ends that are not written are not given here. Peptide text beside a SMILES is read from it.
System: DLBCL cell lines known to be biologically dependent on BCL6 (ly1, Ly7 and Ly10)
Test: DLBCL cell growth inhibition, BCL6-dependent cell lines
Format: cell-based, human
Conditions: for anti-lymphoma activity: BCL6 dependent DLBCL cells, 48 h; for GI50: Ly1, Ly7, Ly10, 48 hr total amount, dose frequency as in Table 1
Protocol: DLBCL cell lines were grown at its respective concentration that were sufficient to keep the untreated cells in exponential growth over the 48 h peptide exposure time. Cell viability was determined by using a fluorometric resazurin reduction method (CellTiter-Blue, Promega) following the manufacturer instructions. The fluorescence (560Ex/590Em) was determined using the Polarstar Optima microplate reader (BMG Labtechnologies). The number of viable cells in each treated well was calculated by using the linear least-squares regression of the standard curve. Optical density was determined for 6 replicates per treatment condition or standard. Cell viability in peptide-treated cells was normalized to their respective controls. Cell viability was verified by the Sulforhodamine B assay (Sigma, Milwaukee, Wis.) following manufacturer's instructions with minor modifications for suspended cells. Experiments were carried out in triplicates and data are represented as percentage of growth inhibition to respective control with 95% confidence interval.
DLBCL cell growth inhibition was chosen as the most relevant screening assay to compare and contrast the biological activity of BPI and its derivatives. […] Growth inhibition was measured by a metabolic viability assay and verified by trypan blue exclusion and were performed in biological quintuplicates. […]

## YGRKKRRQRRRGGLVATVKEAGRSIHEIPREEL [S1]
  anti-lymphoma activity: not active

## G[dD][dI][dM]G[dE][dW]G[dN][dE][dI][dF]G[dA][dI][dA]G[dF][dL]GG[dR][dR][dR][dQ][dR][dR][dK][dK][dR]GGRSIHEIPRG [S4]
  GI50: 14.4 µM

## NH2-GLFGAIAGFIENGWEGMIDG-OH (H-GLFGAIAGFIENGWEGMIDG-OH) [Fu, reference compound]
Ly1, Ly7 and Ly10, peptides administered every 4 h during a 48 h interval
  effect on DLBCL viability (FIG. 8): little or no effect

## CC[C@@H](C)[C@@H](NC(=O)CNC(=O)[C@@H](CCCNC(=N)N)NC(=O)CNC(=O)CNC(=O)[C@@H](CCCNC(=N)N)NC(=O)[C@@H](CCCCN)NC(=O)[C@@H](CCCCN)NC(=O)[C@@H](CCCNC(=N)N)NC(=O)[C@@H](CCCNC(=N)N)NC(=O)[C@@H](CCC(N)=O)NC(=O)[C@@H](CCCNC(=N)N)NC(=O)[C@@H](CCCNC(=N)N)NC(=O)[C@@H](CCCNC(=N)N)NC(=O)CN)C(=O)N[C@H](CCC(=O)O)C(=O)N[C@H](Cc1c[nH]cn1)C(=O)N[C@@H](C(=O)N[C@H](CO)C(=O)N[C@H](CCCNC(=N)N)C(=O)NCC(=O)O)[C@H](C)CC [S7] (H-G[dR][dR][dR][dQ][dR][dR][dK][dK][dR]GG[dR]G[dI][dE][dH][dI][dS][dR]G-OH; N-terminus and C-terminus assumed)
  anti-lymphoma activity: significantly weaker

## YGRKKRRQRRRGGRSIHEIPRG [S2]
  GI50: 21.7 µM
